Laboratory results from patent US5248677A, “Biogentic amine uptake inhibitors” (priority 1992, dated 1993).
Where a name gives a salt, the structure may show the parent alone.

Experiments:
Format in all cases: biochemical, rat (Male Sprague-Dawley)
5-HT (serotonin) uptake = 5-HT (serotonin) uptake inhibition, synaptosomal preparation (cortex); conditions: 5-hydroxytryptamine, rat cortex synaptosomes, 0.1 μM tritiated amine, 37° C., 4 minutes
Protocol: (§1) For the purpose of identifying compounds as biogenic amine uptake inhibitors capable of interacting with the uptake carrier, ligand-carrier binding assays were carried out as an initial sceen.
(§2) Male Sprague-Dawley derived rats, weighing about 180-250 g each (purchased from Sasco Animal Laboratories, Oregon, Wis.) were sacrificed by decapitation. The brains were immediately removed, placed on a chilled glass plate and dissected according to a modification of the method of Glowinski and Iversen (J. Glowinski and L. L. Iversen, J Neurochem, 1966, 13: 655-669). First, the rhombencephalon was separated by a transverse section and discarded. The rest of the brain was divided into two portions by making another transverse section at the level of the optic chiasma. The hypothalamus, which was used for norepinephrine uptake studies, was removed from the posterior part by using the anterior commissure as the horizontal reference point and a line between the posterior hypothalamus and mammillary bodies as the caudal limit. The striatum, which was used for dopamine uptake studies, was also dissected from the posterior portion using the external wall of the lateral ventricle as the internal limit and the corpus collosum as the external limit. The frontal parts of the striatum were removed from the anterior portion of the cerebrum and combined with the striatal tissue from the posterior segment. The cortex, which was used for serotonin uptake studies, was composed of the rest of the anterior portion of the cerebrum and the cortical surfaces removed from the posterior segment. The hypothalamus and the striatum each weighed about 100 mg or slightly less, whereas the cortex weighed up to 800 mg. The tissues were placed in a cold Potter-Elvehjem glass homogenizer with 5 (cortex) or 10 (hypothalamus) or 20 (striatum) volumes of ice-cold 0.32M sucrose, pH 7, and homogenized by hand. The homogenate was centrifuged (on a Multifuge®, American Scientific Products) at 2500 rpm for 10 minutes in a refrigerated room (~4° C.). The supernatant fraction containing the synaptosomes was decanted, mixed thoroughly and kept on crushed ice for use in the uptake studies.
(§3) Uptake studies were conducted according to the method of Snyder and Coyle (S. H. Snyder and J. T. Coyle, J Pharmacol Exp Ther, 1969, 165: 78-86) with minor modifications. Usually a 0.1 mL aliquot of the synaptosomal preparation was incubated in a mixture of 0.75 mL of modified Krebs-Ringerbuffer, 0.05 mL of the drug being tested, and 0.1 mL of a 1 μM solution of the labeled (tritiated) amine (final concentration 0.1 μM), for a total volume of 1 mL. The modified Krebs-Ringer bicarbonate buffer used in these studies contained 118 mM sodium chloride, 4 mM potassium chloride, 1.3 mM calcium chloride, 1.12 mM potassium dihydrogen phosphate, 1.2 mM magnesium sulfate and 24 mM sodium bicarbonate, with the addition of 5 mM glucose, 0.15 mM disodium EDTA, 12.5 μM nialamide and 1 mM ascorbic acid. Uptake was initiated by the addition of the tritiated amine and the mixture was incubated at 37° C. in a Dubnoff Metabolic Shaking Incubator for 4 minutes. A preincubation period was not included since it had been reported that results were similar with and without preincubation of the synaptosomal preparation (G. Vosmer, et al. Biochem Pharmacol, 1980, 24: 2557-2562). Control incubations without the test drug were conducted at 37° C. to determine total uptake and at 0° C. (in a crushed ice bath) to correct for the diffusion of the tritiated amine into the synaptosomes and/or binding.
(§4) Filtration was used to terminate uptake and collect the synaptosomes (C. A. Csernansky, et al. J Pharmacol Methods, 1985, 13: 187-191). In the filtration technique, the incubation mixture was diluted with ice-cold 0.9% aqueous sodium chloride solution and filtered through GF/B glass microfiber filters (Whatman) under reduced pressure. […]

norepinephrine uptake = assay: NE (norepinephrine) uptake inhibition, synaptosomal preparation (hypothalamus); conditions: rat hypothalamus synaptosomes, 0.1 μM tritiated amine, 37° C., 4 minutes
Protocol: as §1, §2, §3, §4

dopamine uptake = assay: DA (dopamine) uptake inhibition, synaptosomal preparation (striatum); conditions: rat striatum synaptosomes, 0.1 μM tritiated amine, 37° C., 4 minutes
Protocol: as §1, §2, §3, §4

SMILES	IC50 (5-HT (serotonin) uptake) [nM]	IC50 (norepinephrine uptake) [nM]	IC50 (dopamine uptake) [nM]	IC50 (5-HT (serotonin) uptake; hydrochloride) [nM]	IC50 (norepinephrine uptake; hydrochloride) [nM]	IC50 (dopamine uptake; hydrochloride) [nM]
COc1cccc2c1CCC1C(Cc3ccccc3)NCC21 (stereo not drawn) [Example 21, cis-2,3,3a,4,5,9b-Hexahydro-6-methoxy-3-phenylmethyl-1H-benz[e]isoindole methanesulfonic acid salt]	13100	758	5490			
CN1CC2c3ccccc3CCC2C1Cc1cccc(F)c1 (stereo not drawn) [Example 16, cis-3-(3-Fluorophenyl)methyl-2,3,3a,4,5,9b-hexahydro-2-methyl-1H-benz[e]isoindole hydrochloride]	5450	50	441			
CN1C[C@@H]2c3ccccc3CC[C@@H]2CCC1Cc1ccccc1 (relative stereo) [Example 77, (+)-cis-2-Methyl-1,3,4,5,5a,6,7,11b-octahydro-3-phenylmethyl-2H-naphth[1,2-c]azepine hydrochloride]	4170	190	5170			
COc1cccc2c1CCC1CCC(Cc3ccccc3)N(C)CC21 (single isomer, unassigned) [Example 76B, 8-Methoxy-2-methyl-1,3,4,5,5a,6,7,11b-octahydro-3-phenylmethyl-2H-naphth[1,2-c]azepine hydrochloride]				344	234	2190
CCN1CC2c3ccc(OC)cc3CCC2C1Cc1ccccc1 (stereo not drawn) [Example 3, cis-2-Ethyl-2,3,3a,4,5,9b-hexahydro-7-methoxy-3-phenylmethyl-1H-benz[e]isoindole methanesulfonate salt]	1400	18	225			
CN1CC2c3ccccc3CCC2CCC1Cc1ccccc1 (single isomer, unassigned; (-)) [Example 78, (-) 2-Methyl-1,3,4,5,5a,6,7,11b-octahydro-3-phenylmethyl-2H-naphth[1,2-c]azepine hydrochloride]	< 1000	9.7	189			
COc1ccc2c(c1)CCC1C2CN(C)C1Cc1cccc(F)c1 (stereo not drawn) [Example 27, trans-3-(3-Fluorophenyl)methyl-2,3,3a,4,5,9b-hexahydro-7-methoxy-2-methyl-1H-benz[e]isoindole hydrochloride]		189		2080		4590
COc1ccc2c(c1)CCC1C(Cc3cccc(F)c3)NCC21 (stereo not drawn) [Example 26, trans-3-(3-Fluorophenyl)methyl-2,3,3a,4,5,9b-hexahydro-7-methoxy-1H-benz[e]isoindole hydrochloride]	2260	603	9040			
COc1ccc2c(c1)CCC1C2CN(C)C1Cc1ccccc1 (stereo not drawn) [Example 2, cis-2,3,3a,4,5,9b-Hexahydro-7-methoxy-2-methyl-3-phenylmethyl-1H-benz[e]isoindole methanesulfonic acid salt]	4160	58	182			
COc1ccc2c(c1)CCC1C(Cc3ccccc3)NCC21 (mixture of isomers) [Example 1, cis/trans 2,3,3a,4,5,9b-Hexahydro-7-methoxy-3-phenylmethyl-1H-benz[e]isoindole hydrochloride]				7290	524	7620
COc1ccc2c(c1)CCC1C2CN(C)C1Cc1cccc(F)c1 (stereo not drawn) [Example 28, cis-3-(3-Fluorophenyl)methyl-2,3,3a,4,5,9b-hexahydro-7-methoxy-2-methyl-1H-benz[e]isoindole hydrochloride]				1870	78	213
CC1C[C@H]2c3ccccc3CC[C@H]2CN1Cc1ccccc1 (relative stereo) [Example 71B, cis-2-Methyl-1,2,3,4,4a,5,6,10b-octahydro-3-phenylmethyl-benz[f]isoquinoline]	2050	11.9	633			
COc1ccc2c(c1)CCC1CC(Cc3ccccc3)N(C)CC21 (stereo not drawn) [Example 72, cis-8-Methoxy-2-methyl-1,2,3,4,4a,5,6,10b-octahydro-3-phenylmethyl-benz[f]isoquinoline hydrochloride]	5750	64	1010			
